Assay type in all cases: in vivo
The test system of assay [1] is Setaria. The experiment in a line: Post-emergence test. The settings on record: 60 g ai/ha, after three weeks. The method, then: (§1) [table] To produce a suitable preparation of active compound, 1 part by weight of active compound is mixed with the stated amount of solvent, the stated amount of emulsifier is added and the concentrate is diluted with water to the desired concentration. Test plants of a height of 5-15 cm are sprayed with the preparation of active compound such that the particular amounts of active compound desired are applied per unit area. The concentration of the spray liquor is chosen such that the particular amount of active compound desired is applied in 1000 l of water/ha. After three weeks, the degree of damage to the plants is rated in % damage in comparison to the development of the untreated control. The figures denote: [table]

The subject of assay [2] is Polygonum. The assay is described as follows: Post-emergence test. The settings on record: 60 g ai/ha, after three weeks. Here is the method:
as §1

Assay [3] deals with Digitaria. The assay is described as follows: Post-emergence test. The settings on record: 60 g ai/ha, after three weeks. Here is the method: as §1
In assay [4] the test system is Sugar beet. The experiment in a line: Post-emergence test. The settings on record: 60 g ai/ha, after three weeks. The method, then: as §1
Assay [5] concerns Avena fatua. The assay is described as follows: Post-emergence test. The settings on record: 60 g ai/ha, after three weeks. The method, then:
as §1

Assay [6] relates to Alopecurus. The assay is described as follows: Post-emergence test. The settings on record: 60 g ai/ha, after three weeks. Here is the method:
as §1

In assay [7] the test system is peach aphids (Myzus persicae). The assay is described as follows: Myzus test. The settings on record: active compound concentration of 1000 ppm; after 6 days; infested cabbage leaves dipped. Here is the method: [table] To produce a suitable preparation of active compound, 1 part by weight of active compound is mixed with the stated amounts of solvent and emulsifier, and the concentrate is diluted with emulsifier-containing water to the desired concentration. Cabbage leaves (Brassica oleracea) which are heavily infested by the peach aphids (Myzus persicae) are treated by being dipped into the preparation of active compound of the desired concentration. After the desired period of time, the kill in % is determined. 100% means that all aphids have been killed; 0% means that none of the aphids have been killed.

Assay [8] concerns greenhouse red spider mite (Tetranychus urticae). The assay is described as follows: Tetranychus test (OP-resistant/dip treatment). The following applies: active compound concentration of 1000 ppm; after 7 days; infested bean plants dipped. Here is the method: [table] To produce a suitable preparation of active compound, 1 part by weight of active compound is mixed with the stated amounts of solvent and emulsifier, and the concentrate is diluted with emulsifier-containing water to the desired concentration. Bean plants (Phaseolus vulgaris) which are heavily infested by all stages of the greenhouse red spider mite (Tetranychus urticae) are dipped into a preparation of active compound of the desired concentration. After the desired period of time, the effect in % is determined. 100% means that all spider mites have been killed; 0% means that none of the spider mites have been killed.

The test system of assay [9] is Abutilo. The experiment in a line: Pre-emergence test. The settings on record: 125 g ai/ha, after three weeks. Here is the method: (§2) [table] To produce a suitable preparation of active compound, 1 part by weight of active compound is mixed with the stated amount of solvent, the stated amount emulsifier is added and the concentrate is diluted with water to the desired concentration. Seeds of the test plants are sown in normal soil. After about 24 hours, the soil is sprayed with the preparation of active compound such that the particular amounts of active compound desired are applied per unit area. The concentration of the spray liquor is chosen such that the particular amounts of active compound desired are applied in 1000 l of water/ha. After three weeks, the degree of damage to the plants is rated in % damage in comparison to the development of the untreated controls. The figures denote: [table]

For assay [10], the system named is Setaria. The assay is described as follows: Pre-emergence test. The settings on record: 125 g ai/ha, after three weeks. The method, then: as §2
Assay [11] has as its system Lolium. The assay is described as follows: Pre-emergence test. The following applies: 125 g ai/ha, after three weeks. Here is the method: as §2
Assay [12] relates to Digitaria. The experiment in a line: Pre-emergence test. The following applies: 125 g ai/ha, after three weeks. Here is the method: as §2
For assay [13], the system named is Cyperus. The experiment in a line: Pre-emergence test. The settings on record: 125 g ai/ha, after three weeks. The method, then: as §2
For assay [14], the system named is Soya bean. The assay is described as follows: Pre-emergence test. The settings on record: 125 g ai/ha, after three weeks. Here is the method: as §2
Assay [15] deals with Bromus. The assay is described as follows: Pre-emergence test. The following applies: 125 g ai/ha, after three weeks. The method, then:
as §2

Assay [16] relates to Alopecurus. The experiment in a line: Pre-emergence test. The following applies: 125 g ai/ha, after three weeks. Here is the method:
as §2

For the compound `C#Cc1cc(C)c(C2=C(OC(=O)OCC)C3(CCC(OC)CC3)NC2=O)c(C)c1` (stereo not shown) [Example I-1-c-4], the “% damage Setaria” value in [1] and in assay [10] was 100% each time. In addition, the “% damage Polygonum” value in assay [2] came out at 70%. The “% damage Digitaria” value in [3] was found to be 95%; in assay [12], 100%. The “% damage Sugar beet” value in assay [4] was 10%. Moreover, the “% damage Avena fatua” value in [5] stood at 90%. The “% damage Alopecurus” value turned out to be 90% in [6] and 95% in [16]. Moreover, the kill in % in [7] and in [8] was 100% each time. Also, in [9], the “% damage Abutilo” value was found to be 70%. Besides, the “% damage Lolium” value in [11] turned out to be 100%. Moreover, in assay [13], the “% damage Cyperus” value came out at 100%. Further, in assay [14], the “% damage Soya bean” value came out at 20%. In [15], the “% damage Bromus” value came to 100%.

For the origin of these results see patent publication US7915282B2, “C2-phenyl-substituted cyclic keto-enols used as pesticides and herbicides” (Bayer Aktiengesellschaft, priority 2000, dated 2011).
